Measured values as given in PubChem BioAssay AID1919006 (Molecular Pharmacology Branch, DTP, NCI, 2023).

System: 885512-296-R-J2-PDC complex spheroid growth, % test/control
Test: Anticancer human tumor 885512-296-R-J2-PDC patient-derived breast carcinoma cell line growth inhibition [AhR]
Settings: for IC50: curve of first compound; for viability, T/C: stronger effect = lower value
In short: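 Spheroids combined tumor cells with HUVEC endothelial cells and human MSCs as stroma. AhR antagonists were paired with standard or investigational drugs, each dosed in half-log steps down from near clinical Cmax, or from 10 microM where Cmax was unknown.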

[1] = second compound 0.1 µM, first compound 0.0316 µM
[2] = second compound 0.1 µM, first compound 0.1 µM
[3] = second compound 0.1 µM, first compound 0.316 µM
[4] = second compound 0.1 µM, first compound 1 µM
[5] = second compound 0.1 µM, first compound 3.16 µM
[6] = second compound 0.1 µM, first compound 10 µM
[7] = second compound 0.316 µM, first compound 0.0316 µM
[8] = second compound 0.316 µM, first compound 0.1 µM
[9] = second compound 0.316 µM, first compound 0.316 µM
[10] = second compound 0.316 µM, first compound 1 µM
[11] = second compound 0.316 µM, first compound 3.16 µM
[12] = second compound 0.316 µM, first compound 10 µM
[13] = second compound 1 µM, first compound 0.0316 µM
[14] = second compound 1 µM, first compound 0.1 µM
[15] = second compound 1 µM, first compound 0.316 µM
[16] = second compound 1 µM, first compound 1 µM
[17] = second compound 1 µM, first compound 3.16 µM
[18] = second compound 1 µM, first compound 10 µM
[19] = second compound 3.16 µM, first compound 0.0316 µM
[20] = second compound 3.16 µM, first compound 0.1 µM
[21] = second compound 3.16 µM, first compound 0.316 µM
[22] = second compound 3.16 µM, first compound 1 µM
[23] = second compound 3.16 µM, first compound 3.16 µM
[24] = second compound 3.16 µM, first compound 10 µM
[25] = second compound 10 µM, first compound 0.0316 µM
[26] = second compound 10 µM, first compound 0.1 µM
[27] = second compound 10 µM, first compound 0.316 µM
[28] = second compound 10 µM, first compound 1 µM
[29] = second compound 10 µM, first compound 3.16 µM
[30] = second compound 10 µM, first compound 10 µM
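Note: spheroids exposed to compounds for seven days.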

CC(C)c1c(-c2ccccc2)nc2c(C#N)c[nH]n2c1=O + Cc1cncc(-c2nc(NCCc3c[nH]c4ccccc34)c3ncn(C(C)C)c3n2)c1
IC50 (second compound 0.1 µM): > 10000 nM | IC50 (second compound 0.316 µM): > 10000 nM | IC50 (second compound 1 µM): > 10000 nM | IC50 (second compound 3.16 µM): > 10000 nM | IC50 (second compound 10 µM): < 31.6 nM | viability, T/C [1]: 108% | viability, T/C [2]: 108% | viability, T/C [3]: 101% | viability, T/C [4]: 109% | viability, T/C [5]: 97.1% | viability, T/C [6]: 86.6% | viability, T/C [7]: 104% | viability, T/C [8]: 108% | viability, T/C [9]: 105% | viability, T/C [10]: 93.3% | viability, T/C [11]: 102% | viability, T/C [12]: 89.3% | viability, T/C [13]: 94.5% | viability, T/C [14]: 95.4% | viability, T/C [15]: 83% | viability, T/C [16]: 83.2% | viability, T/C [17]: 80.8% | viability, T/C [18]: 81.8% | viability, T/C [19]: 62% | viability, T/C [20]: 59.7% | viability, T/C [21]: 56.2% | viability, T/C [22]: 62.1% | viability, T/C [23]: 60.5% | viability, T/C [24]: 52.3% | viability, T/C [25]: 17% | viability, T/C [26]: 18.7% | viability, T/C [27]: 17.9% | viability, T/C [28]: 14.5% | viability, T/C [29]: 17.9% | viability, T/C [30]: 17.9%

CC1COCCN1c1cc(-c2ccnn2C)c2ccnc(-c3ccn[nH]3)c2n1 (stereo not given) + Cc1cncc(-c2nc(NCCc3c[nH]c4ccccc34)c3ncn(C(C)C)c3n2)c1
IC50 (second compound 0.1 µM): 34.4 nM | IC50 (second compound 0.316 µM): 33.4 nM | IC50 (second compound 1 µM): 22.1 nM | IC50 (second compound 3.16 µM): 3.22 nM | IC50 (second compound 10 µM): < 3.16 nM | viability, T/C (second compound 0.1 µM, first compound 0.00316 µM): 99.4% | viability, T/C (second compound 0.1 µM, first compound 0.01 µM): 85.3% | viability, T/C [1]: 55.2% | viability, T/C [2]: 9.6% | viability, T/C [3]: 3.2% | viability, T/C [4]: 2.72% | viability, T/C (second compound 0.316 µM, first compound 0.00316 µM): 83.1% | viability, T/C (second compound 0.316 µM, first compound 0.01 µM): 95.9% | viability, T/C [7]: 51.9% | viability, T/C [8]: 9.85% | viability, T/C [9]: 3.26% | viability, T/C [10]: 2.57% | viability, T/C (second compound 1 µM, first compound 0.00316 µM): 74.4% | viability, T/C (second compound 1 µM, first compound 0.01 µM): 71.3% | viability, T/C [13]: 40.3% | viability, T/C [14]: 7.24% | viability, T/C [15]: 2.89% | viability, T/C [16]: 2.37% | viability, T/C (second compound 3.16 µM, first compound 0.00316 µM): 48.9% | viability, T/C (second compound 3.16 µM, first compound 0.01 µM): 50.1% | viability, T/C [19]: 33.7% | viability, T/C [20]: 8.94% | viability, T/C [21]: 2.55% | viability, T/C [22]: 2.78% | viability, T/C (second compound 10 µM, first compound 0.00316 µM): 13.3% | viability, T/C (second compound 10 µM, first compound 0.01 µM): 15.6% | viability, T/C [25]: 9.95% | viability, T/C [26]: 6.27% | viability, T/C [27]: 3.04% | viability, T/C [28]: 2.87%

COc1ccc([C@@H](O)c2cc(-c3ncnc4cc(N5CCOCC5)ccc34)c(F)cc2Cl)nn1 + Cc1cncc(-c2nc(NCCc3c[nH]c4ccccc34)c3ncn(C(C)C)c3n2)c1
IC50 (second compound 0.1 µM): > 10000 nM | IC50 (second compound 0.316 µM): 8020 nM | IC50 (second compound 1 µM): 6100 nM | IC50 (second compound 3.16 µM): 933 nM | IC50 (second compound 10 µM): < 31.6 nM | viability, T/C [1]: 101% | viability, T/C [2]: 93.2% | viability, T/C [3]: 87.4% | viability, T/C [4]: 87.3% | viability, T/C [5]: 63.1% | viability, T/C [6]: 51.7% | viability, T/C [7]: 104% | viability, T/C [8]: 89.7% | viability, T/C [9]: 81.9% | viability, T/C [10]: 86.5% | viability, T/C [11]: 65.9% | viability, T/C [12]: 45.1% | viability, T/C [13]: 90.9% | viability, T/C [14]: 78.4% | viability, T/C [15]: 86.8% | viability, T/C [16]: 77.7% | viability, T/C [17]: 63.2% | viability, T/C [18]: 39.5% | viability, T/C [19]: 55.2% | viability, T/C [20]: 55.5% | viability, T/C [21]: 48.2% | viability, T/C [22]: 53.3% | viability, T/C [23]: 42.6% | viability, T/C [24]: 32.4% | viability, T/C [25]: 18.1% | viability, T/C [26]: 15.5% | viability, T/C [27]: 16.1% | viability, T/C [28]: 13.2% | viability, T/C [29]: 11.3% | viability, T/C [30]: 9.01%

O=C(C=Cn1cnc(-c2cc(C(F)(F)F)cc(C(F)(F)F)c2)n1)NNc1cnccn1 + Cc1cncc(-c2nc(NCCc3c[nH]c4ccccc34)c3ncn(C(C)C)c3n2)c1
IC50 (second compound 0.1 µM): 60.6 nM | IC50 (second compound 0.316 µM): 69.2 nM | IC50 (second compound 1 µM): 65.8 nM | IC50 (second compound 3.16 µM): 42.5 nM | IC50 (second compound 10 µM): < 9.49 nM | viability, T/C (second compound 0.1 µM, first compound 0.00949 µM): 93.3% | viability, T/C (second compound 0.1 µM, first compound 0.03 µM): 99.9% | viability, T/C (second compound 0.1 µM, first compound 0.0949 µM): 20.3% | viability, T/C (second compound 0.1 µM, first compound 0.3 µM): 4.2% | viability, T/C (second compound 0.1 µM, first compound 0.949 µM): 2.2% | viability, T/C (second compound 0.1 µM, first compound 3 µM): 1.61% | viability, T/C (second compound 0.316 µM, first compound 0.00949 µM): 97.4% | viability, T/C (second compound 0.316 µM, first compound 0.03 µM): 93% | viability, T/C (second compound 0.316 µM, first compound 0.0949 µM): 33.8% | viability, T/C (second compound 0.316 µM, first compound 0.3 µM): 5.36% | viability, T/C (second compound 0.316 µM, first compound 0.949 µM): 2.35% | viability, T/C (second compound 0.316 µM, first compound 3 µM): 1.45% | viability, T/C (second compound 1 µM, first compound 0.00949 µM): 98.2% | viability, T/C (second compound 1 µM, first compound 0.03 µM): 89.4% | viability, T/C (second compound 1 µM, first compound 0.0949 µM): 31.6% | viability, T/C (second compound 1 µM, first compound 0.3 µM): 4.92% | viability, T/C (second compound 1 µM, first compound 0.949 µM): 2.78% | viability, T/C (second compound 1 µM, first compound 3 µM): 1.53% | viability, T/C (second compound 3.16 µM, first compound 0.00949 µM): 64.6% | viability, T/C (second compound 3.16 µM, first compound 0.03 µM): 66.2% | viability, T/C (second compound 3.16 µM, first compound 0.0949 µM): 14.8% | viability, T/C (second compound 3.16 µM, first compound 0.3 µM): 5.25% | viability, T/C (second compound 3.16 µM, first compound 0.949 µM): 2.77% | viability, T/C (second compound 3.16 µM, first compound 3 µM): 1.58% | viability, T/C (second compound 10 µM, first compound 0.00949 µM): 19.2% | viability, T/C (second compound 10 µM, first compound 0.03 µM): 16.8% | viability, T/C (second compound 10 µM, first compound 0.0949 µM): 8.05% | viability, T/C (second compound 10 µM, first compound 0.3 µM): 4.48% | viability, T/C (second compound 10 µM, first compound 0.949 µM): 3.45% | viability, T/C (second compound 10 µM, first compound 3 µM): 2.01%
